Test results as given in ChEMBL document CHEMBL4613271, “Application of Atypical Acetyl-lysine Methyl Mimetics in the Development of Selective Inhibitors of the Bromodomain-Containing Protein 7 (BRD7)/Bromodomain-Containing Protein 9 (BRD9) Bromodomains” (J Med Chem, 2020).

Columns and labels:
[1] = target: T1, Bromodomain-containing protein 4 (Homo sapiens, UniProt O60885); experiment: Binding affinity to BRD4 (1) (unknown origin) N-terminal bromodomain by TR-FRET assay
[2] = target: T2, Bromodomain-containing protein 9 (Homo sapiens, UniProt Q9H8M2)
T2 sequence (Q9H8M2 whole entry): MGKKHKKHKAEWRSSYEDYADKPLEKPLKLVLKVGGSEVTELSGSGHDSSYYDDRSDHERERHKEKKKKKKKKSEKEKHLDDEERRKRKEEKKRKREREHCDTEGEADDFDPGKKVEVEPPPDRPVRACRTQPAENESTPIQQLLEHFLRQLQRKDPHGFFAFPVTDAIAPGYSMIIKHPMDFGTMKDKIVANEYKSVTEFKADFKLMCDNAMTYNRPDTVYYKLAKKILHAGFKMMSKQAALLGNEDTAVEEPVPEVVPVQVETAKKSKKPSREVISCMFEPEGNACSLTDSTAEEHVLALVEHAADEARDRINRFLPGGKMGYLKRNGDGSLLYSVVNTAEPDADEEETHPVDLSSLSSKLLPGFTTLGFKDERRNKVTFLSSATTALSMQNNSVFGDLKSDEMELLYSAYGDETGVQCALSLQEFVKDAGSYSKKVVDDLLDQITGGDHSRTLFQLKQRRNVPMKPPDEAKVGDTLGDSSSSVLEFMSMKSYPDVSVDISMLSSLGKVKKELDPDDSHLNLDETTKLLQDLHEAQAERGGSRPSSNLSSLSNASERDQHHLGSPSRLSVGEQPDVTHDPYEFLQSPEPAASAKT
Description: Binding affinity to human partial length BRD9 (R130 to V259 residues) expressed in bacterial expression system by BROMOscan assay

[3] = Chromatographic hydrophobicity index, logD of the compound at pH 7.4 by HPLC analysis; format: physicochemical; conditions: buffer
Peregrin = target: T3, Peregrin (Homo sapiens, UniProt P55201); experiment: Binding affinity to human partial length BRPF1 (E627 to G740 residues) expressed in bacterial expression system by BROMOscan assay
T3 sequence (P55201 whole entry): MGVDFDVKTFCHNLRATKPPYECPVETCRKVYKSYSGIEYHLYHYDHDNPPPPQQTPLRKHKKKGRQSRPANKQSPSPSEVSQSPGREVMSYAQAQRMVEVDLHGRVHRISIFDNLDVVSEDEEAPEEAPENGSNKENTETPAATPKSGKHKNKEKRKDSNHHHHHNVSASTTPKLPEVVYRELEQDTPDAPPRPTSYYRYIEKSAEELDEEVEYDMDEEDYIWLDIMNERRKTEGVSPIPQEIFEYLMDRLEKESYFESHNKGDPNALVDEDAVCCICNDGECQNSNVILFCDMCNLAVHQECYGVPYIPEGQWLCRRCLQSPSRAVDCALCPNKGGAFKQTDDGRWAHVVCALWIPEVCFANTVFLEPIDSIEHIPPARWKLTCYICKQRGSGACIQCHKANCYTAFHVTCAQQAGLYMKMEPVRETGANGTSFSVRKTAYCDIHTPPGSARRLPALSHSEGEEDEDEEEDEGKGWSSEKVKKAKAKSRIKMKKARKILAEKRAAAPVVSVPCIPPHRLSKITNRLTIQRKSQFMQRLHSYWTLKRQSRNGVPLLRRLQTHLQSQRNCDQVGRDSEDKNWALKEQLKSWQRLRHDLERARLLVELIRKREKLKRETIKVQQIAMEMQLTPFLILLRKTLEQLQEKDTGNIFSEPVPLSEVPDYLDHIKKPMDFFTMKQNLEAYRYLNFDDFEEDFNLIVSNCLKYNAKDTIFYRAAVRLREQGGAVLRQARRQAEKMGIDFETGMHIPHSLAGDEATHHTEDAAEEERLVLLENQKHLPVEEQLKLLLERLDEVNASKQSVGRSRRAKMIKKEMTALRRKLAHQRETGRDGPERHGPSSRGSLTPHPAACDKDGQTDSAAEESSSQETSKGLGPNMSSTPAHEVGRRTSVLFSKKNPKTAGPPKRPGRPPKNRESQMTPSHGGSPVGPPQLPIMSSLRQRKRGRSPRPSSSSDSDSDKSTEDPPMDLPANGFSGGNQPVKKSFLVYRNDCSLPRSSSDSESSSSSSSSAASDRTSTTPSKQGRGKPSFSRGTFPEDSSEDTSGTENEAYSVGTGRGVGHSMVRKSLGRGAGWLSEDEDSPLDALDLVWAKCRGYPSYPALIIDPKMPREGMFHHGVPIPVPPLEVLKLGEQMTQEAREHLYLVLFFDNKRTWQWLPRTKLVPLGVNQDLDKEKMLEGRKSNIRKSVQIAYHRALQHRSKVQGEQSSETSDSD

[4] = target: T1, Bromodomain-containing protein 4; experiment: Binding affinity to human partial length BRD4 (1) (N44 to E168 residues) expressed in bacterial expression system by BROMOscan assay
[5] = target: T2, Bromodomain-containing protein 9; experiment: Binding affinity to BRD9 (unknown origin) N-terminal bromodomain by TR-FRET assay
Homo sapiens [6] = species: Homo sapiens; experiment: Selectivity index, ratio of IC50 for binding affinity to BRD4 (1) (unknown origin) N-terminal bromodomain to IC50 for binding affinity to BRD9 (unknown origin) N-terminal bromodomain
[7] = target: T4, Bromodomain-containing protein 9 (Homo sapiens) (UniProt Q9H8M2); experiment: Inhibition of human partial length BRD9 (R130 to V259 residues) expressed in bacterial expression system at 10 uM by BROMOscan assay relative to control
T4 sequence (whole entry): T2 sequence (Q9H8M2 whole entry)

Homo sapiens [8] = species: Homo sapiens; experiment: Selectivity index, ratio of IC50 for binding affinity to PCAF (unknown origin) N-terminal bromodomain to IC50 for binding affinity to BRD9 (unknown origin) N-terminal bromodomain
[9] = target: T5, Bromodomain-containing protein 7 (Homo sapiens, UniProt Q9NPI1); experiment: Binding affinity to BRD7 (unknown origin)
T5 sequence (Q9NPI1 whole entry): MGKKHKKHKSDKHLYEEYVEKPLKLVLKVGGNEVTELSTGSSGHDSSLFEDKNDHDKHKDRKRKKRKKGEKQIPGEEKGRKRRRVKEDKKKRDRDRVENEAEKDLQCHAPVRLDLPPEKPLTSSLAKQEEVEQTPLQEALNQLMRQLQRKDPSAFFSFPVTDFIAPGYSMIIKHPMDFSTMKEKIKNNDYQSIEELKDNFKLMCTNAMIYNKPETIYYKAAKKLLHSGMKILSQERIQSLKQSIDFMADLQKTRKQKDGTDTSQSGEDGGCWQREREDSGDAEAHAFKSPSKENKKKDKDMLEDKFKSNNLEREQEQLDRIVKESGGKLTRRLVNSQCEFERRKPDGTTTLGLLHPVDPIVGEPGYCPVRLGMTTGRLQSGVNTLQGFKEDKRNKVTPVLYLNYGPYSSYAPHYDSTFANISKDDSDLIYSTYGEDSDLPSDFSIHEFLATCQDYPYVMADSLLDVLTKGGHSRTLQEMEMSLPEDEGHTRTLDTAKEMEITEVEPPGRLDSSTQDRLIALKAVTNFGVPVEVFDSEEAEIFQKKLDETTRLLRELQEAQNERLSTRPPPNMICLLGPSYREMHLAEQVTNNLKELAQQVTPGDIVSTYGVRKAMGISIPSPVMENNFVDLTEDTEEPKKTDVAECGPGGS

[10] = Solubility of compound by CLND method; format: physicochemical
[11] = Permeability by PAMPA; format: ADME; conditions: read-out: permeability

IC50 [1] [µM] | Ki [2] [µM] | chromatographic logD [3] | Ki (Peregrin) [µM] | Ki [4] [µM] | IC50 [5] [µM] | fold selectivity (Homo sapiens [6]) | SMILES | also measured
> 50.1 | 0.0794 |  |  |  |  |  | CCCCc1c(Nc2cccc3c2CCN(C)C3)cnn(C)c1=O | 
 | 0.316 | 3.1 | > 10 | > 10 |  |  | C=C[C@H](C)c1c(NCc2ccccc2N2CCN(C)CC2)cnn(C)c1=O | 
20 |  | 3.2 |  |  | 0.1 | 200 | Cc1c(NCc2ccccc2N2CCOCC2)cnn(C)c1=O | 
 | 0.158 | 4.2 | > 10 | 1.58 |  |  | CCCCCc1c(NCc2ccccc2N2CCN(C)CC2)cnn(C)c1=O | 
 | 0.251 | 3 | > 10 | > 10 |  |  | C/C=C\Cc1c(NCc2ccccc2N2CCN(C)CC2)cnn(C)c1=O | 
 | 0.1 | 2.5 | > 10 | > 10 |  |  | C=CCc1c(NCc2ccccc2N2CCN(C)CC2)cnn(C)c1=O | 
15.8 |  | 1.2 |  |  | 0.0631 | 250 | Cc1c(NCc2ccccc2N2CCN(CCCN)CC2)cnn(C)c1=O | 
 | 0.251 | 3.1 | > 10 | > 10 |  |  | C=C[C@@H](C)c1c(NCc2ccccc2N2CCN(C)CC2)cnn(C)c1=O | 
 | 0.0398 | 3.1 | > 10 | 3.98 |  |  | C/C=C/Cc1c(NCc2ccccc2N2CCN(C)CC2)cnn(C)c1=O | 
 | 0.316 | 3.1 | 7.94 | > 10 |  |  | CC(C)c1c(NCc2ccccc2N2CCN(C)CC2)cnn(C)c1=O | 
 |  | 1.1 |  |  |  |  | CN1CCN(c2ccccc2CNc2cnn(C)c(=O)c2)CC1 | solubility kinetic [10]: ≥ 150 µg/mL; Papp [11]: 14 ×10⁻⁶ cm/s; IC50 [4]: > 50.1 µM; IC50 [2]: > 50.1 µM
 | 0.398 | 3.2 | > 10 | > 10 |  |  | C=CCCc1c(NCc2ccccc2N2CCN(C)CC2)cnn(C)c1=O | 
 | > 10 | 3.5 | > 10 | > 10 |  |  | CC/C=C/c1c(NCc2ccccc2N2CCN(C)CC2)cnn(C)c1=O | 
 | 0.0794 | 2.3 | 6.31 | 7.94 |  |  | CCc1c(NCc2ccccc2N2CCN(C)CC2)cnn(C)c1=O | 
12.6 |  | 3.5 |  |  | 0.1 | 125 | Cc1c(NCc2ccccc2N2CCCOCC2)cnn(C)c1=O | 

More lines, now with the values behind:

SMILES | IC50 [1] [µM] | Ki [2] [µM] | chromatographic logD [3] | Ki (Peregrin) [µM] | Ki [4] [µM] | IC50 [5] [µM] | fold selectivity (Homo sapiens [6]) | also measured
CCCc1c(NCc2ccccc2N2CCN(C)CC2)cnn(C)c1=O |  | 0.126 | 2.8 | > 10 | > 10 |  |  | 
CCCCc1nnc2c(NC(=O)OCC)cc(-c3ccc(C)c(NS(C)(=O)=O)c3)nn12 |  |  |  |  |  |  |  | inhibition [7]: > 95%
Cc1c(NCc2ccccc2N2CCNCC2)cnn(C)c1=O | > 50.1 |  | 0.7 |  |  | 0.2 | > 250 | 
CCCCn1cc(-c2cccc(C(F)(F)F)c2)c2sc(C(=N)NC3CCS(=O)(=O)CC3)cc2c1=O |  | 0.01 |  |  |  |  |  | 
Cc1ccc(CNc2cnn(C)c(=O)c2Cl)cc1 | 12.6 |  | 4 |  |  | 0.794 | 16 | 
Cc1c(Nc2cccc3c2CCN(C)C3)cnn(C)c1=O | 39.8 | 0.158 |  |  |  |  |  | 
Cn1ncc(NCc2ccccc2)c(Cl)c1=O | 20 |  | 3.2 |  |  | 2 | 10 | fold selectivity (Homo sapiens [8]): 6
Cc1c(NCc2ccccc2)cnn(C)c1=O | 25.1 |  | 2.9 |  |  | 1.26 | 20 | 
Cc1ccccc1CNc1cnn(C)c(=O)c1C | 25.1 |  | 3.6 |  |  | 0.398 | 63 | 
COc1cc(-c2cn(C)c(=O)c3cnccc23)c(OC)cc1CN(C)CC(=O)NCCOCCOCCNc1cccc2c1C(=O)N(C1CCC(=O)NC1=O)C2=O (stereo not given) |  |  |  |  |  |  |  | IC50 [9]: 0.1 µM
Cc1c(NCc2ccccc2-c2ccccc2)cnn(C)c1=O | 12.6 |  | 4.8 |  |  | 0.1 | 125 | 
Cc1cccc(CNc2cnn(C)c(=O)c2Cl)c1 | 20 |  | 4 |  |  | 2.51 | 8 | 
CNc1cnn(C)c(=O)c1Cl | 126 |  |  |  |  | 25.1 |  | 
CCOC(=O)Nc1cc(-c2ccc(C)c(NS(C)(=O)=O)c2)nn2c(C)nnc12 |  |  |  |  |  |  |  | inhibition [7]: 100%
